Test results taken from the supplement of paper PMC10307832.

What was measured:
Assay in all cases: relative viability (nuclei count vs DMSO), 5 days (fraction); higher = more cells survive
[1] = compound: Cn1cc(-c2cnn3c(N)c(Br)c([C@@H]4CCCNC4)nc23)cn1 + CC(=O)Nc1cccc(-n2c(=O)n(C3CC3)c(=O)c3c(Nc4ccc(I)cc4F)n(C)c(=O)c(C)c32)c1 [Trametinib] (partner 0.02 µM)
Procedure, shortened: (§1)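 Cells from lung cancer lines were seeded into 1536-well plates and, one day later, dosed by pin tool. Treatments were either a single drug or a fixed dose of an anchor drug with five library-drug doses (not always all listed) in √10 steps. After 5 days, nuclei were stained in a one-step fixation (final 0.05% Triton X-100, 1% formaldehyde, 1 ug/ml Hoechst) and counted on 4× images, and relative viability is the treated-to-vehicle nuclei ratio, as the median of duplicate plates.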

[2] = compound: Cn1cc(-c2cnn3c(N)c(Br)c([C@@H]4CCCNC4)nc23)cn1 + COc1cccc2cc(-c3nc([C@H]4CC[C@H](C(=O)O)CC4)n4ncnc(N)c34)[nH]c12 [OSI-027] (partner 0.5 µM)
Procedure, shortened: as §1

[3] = compound: Cn1cc(-c2cnn3c(N)c(Br)c([C@@H]4CCCNC4)nc23)cn1 + CS(=O)(=O)CCNCc1ccc(-c2ccc3ncnc(Nc4ccc(OCc5cccc(F)c5)c(Cl)c4)c3c2)o1 [Lapatinib] (partner 2 µM)
Procedure, shortened: as §1

[4] = compound: Cn1cc(-c2cnn3c(N)c(Br)c([C@@H]4CCCNC4)nc23)cn1 + C[C@]1(O)C[C@@H](c2nc(-c3ccc4ccc(-c5ccccc5)nc4c3)c3c(N)nccn32)C1 [Linsitinib] (partner 1 µM)
Procedure, shortened: as §1

Row | Cell Line | relative viability ([1]; first compound 0.05 µM) | relative viability ([1]; first compound 0.1581 µM) | relative viability ([1]; first compound 0.5 µM) | relative viability ([1]; first compound 1.581 µM) | relative viability ([1]; first compound 5 µM) | relative viability ([2]; first compound 0.1581 µM) | relative viability ([2]; first compound 0.5 µM) | relative viability ([2]; first compound 1.581 µM) | relative viability ([2]; first compound 5 µM) | relative viability ([3]; first compound 0.05 µM) | relative viability ([3]; first compound 0.1581 µM) | relative viability ([3]; first compound 0.5 µM) | relative viability ([3]; first compound 1.581 µM) | relative viability ([3]; first compound 5 µM) | relative viability ([4]; first compound 0.05 µM) | relative viability ([4]; first compound 0.1581 µM) | relative viability ([4]; first compound 0.5 µM) | relative viability ([4]; first compound 1.581 µM) | relative viability ([4]; first compound 5 µM) | relative viability ([2]; first compound 0.05 µM)
1 | HCC-78 | 0.822 | 1.14 | 0.834 | 0.844 | 0.674 | 0.347 | 0.345 | 0.354 | 0.517 | 0.841 | 0.92 | 0.786 | 0.641 | 0.245 | 0.507 | 0.519 | 0.524 | 0.604 | 0.385 | –
2 | HCC-366 | 0.388 | 0.311 | 0.301 | 0.284 | 0.286 | 1.19 | 0.945 | 0.959 | 0.952 | 1.05 | 1.32 | 0.66 | 0.649 | 0.382 | 0.71 | 0.739 | 0.483 | 0.521 | 0.18 | 1.03
3 | HCC-827 | 0.499 | 0.541 | 0.556 | 0.549 | 0.444 | 0.907 | 0.71 | 0.715 | 0.705 | 0.234 | 0.197 | 0.196 | 0.178 | 0.152 | 0.934 | 0.958 | 0.947 | 1.05 | 0.953 | 0.731
4 | HOP-62 | 0.354 | 0.376 | 0.404 | 0.339 | 0.34 | 1.08 | 0.825 | 0.555 | 0.562 | 1.05 | 1.27 | 1.08 | 0.896 | 0.792 | 1.17 | 1.08 | 0.693 | 0.873 | 0.956 | 0.831
5 | IA-LM | – | – | – | – | – | – | – | – | – | 0.927 | 0.624 | 0.581 | 0.44 | 0.225 | 0.666 | 0.867 | 0.653 | 0.544 | 0.37 | –
6 | LC-2-ad | 0.974 | 0.986 | 0.935 | 0.931 | 0.961 | 0.879 | 0.905 | 0.884 | 0.736 | 1.02 | 1.04 | 0.923 | 0.754 | 0.925 | 0.907 | 0.891 | 0.821 | 0.884 | 0.86 | 0.806
7 | LCLC-97TM1 | 0.151 | 0.202 | 0.182 | 0.207 | 0.224 | 0.558 | 0.545 | 0.391 | 0.487 | 0.86 | 1.3 | 0.976 | 0.915 | 0.774 | 0.194 | 0.2 | 0.184 | 0.21 | 0.176 | 0.459
8 | LCLC-103H | 0.641 | 0.7 | 0.717 | 0.677 | 0.684 | 0.43 | 0.516 | 0.405 | 0.389 | – | – | – | – | – | 0.978 | 1.18 | 1.15 | 1.06 | 0.915 | 0.433
9 | LK-2 | 0.974 | 1.05 | 0.719 | 0.626 | 0.625 | 0.162 | 0.172 | 0.179 | 0.168 | 1.01 | 0.878 | 0.823 | 0.757 | 0.605 | 0.548 | 0.446 | 0.51 | 0.369 | 0.317 | 0.146
10 | LOU-NH91 | 0.804 | 0.776 | 0.751 | 0.749 | 0.665 | 0.711 | 0.684 | 0.727 | 0.701 | 0.785 | 0.694 | 0.761 | 0.713 | 0.619 | 0.963 | 0.868 | 0.929 | 0.899 | 0.734 | 0.752
11 | LU99A | 0.464 | 0.572 | 0.599 | 0.492 | 0.518 | 0.309 | 0.242 | 0.261 | 0.207 | 1.04 | 1.11 | 0.998 | 0.858 | 0.611 | 0.533 | 0.622 | 0.496 | 0.557 | 0.422 | 0.285
12 | LXF-289 | 0.712 | 0.71 | 0.662 | 0.62 | 0.673 | 0.896 | 0.82 | 0.82 | 0.766 | 0.922 | 1.02 | 0.887 | 0.904 | 0.896 | 0.976 | 1.07 | 1.07 | 0.903 | 1.04 | 0.853
13 | NCI-H441 | 0.431 | 0.491 | 0.426 | 0.337 | 0.429 | 0.814 | 0.821 | 0.565 | 0.609 | – | – | – | – | – | 0.802 | 0.346 | 0.461 | 0.56 | 0.563 | 0.614
14 | NCI-H522 | 0.852 | 0.754 | 0.699 | 0.802 | 0.579 | 0.685 | 0.748 | 0.681 | 0.661 | – | – | – | – | – | – | – | – | – | – | 0.344
15 | NCI-H1299 | – | – | – | – | – | – | – | – | – | 0.982 | 0.976 | 0.923 | 0.767 | 0.757 | 1.02 | 1.04 | 0.959 | 0.833 | 0.626 | –
16 | NCI-H1563 | – | – | – | – | – | 0.779 | 0.691 | 0.711 | 0.703 | 0.941 | 0.861 | 0.888 | 0.859 | 0.888 | 1.13 | 1.27 | 1.26 | 1.17 | 0.848 | 0.737
17 | NCI-H1648 | 0.443 | 0.478 | 0.421 | 0.435 | 0.515 | 0.235 | – | 0.258 | 0.261 | – | – | – | – | – | – | – | – | – | – | 0.249
18 | NCI-H1650 | 0.559 | 0.551 | 0.487 | 0.405 | 0.428 | 0.634 | 0.726 | 0.467 | 0.345 | 0.854 | 0.882 | 0.711 | 0.64 | 0.428 | – | – | – | – | – | –
19 | NCI-H1703 | – | – | – | – | – | – | – | – | – | 1.18 | 0.454 | 0.481 | 0.205 | 0.124 | 0.72 | 0.586 | 0.539 | 0.336 | 0.119 | –
20 | NCI-H2170 | 0.973 | 0.93 | 0.927 | 0.763 | 1.13 | 0.801 | 0.687 | 0.649 | 0.653 | 0.26 | 0.252 | 0.289 | 0.282 | 0.286 | – | – | – | – | – | 0.759
21 | NCI-H2342 | 0.801 | 0.9 | 0.682 | 0.835 | 0.777 | 0.632 | 0.585 | 0.526 | 0.593 | – | – | – | – | – | – | – | – | – | – | 0.52
